In data set [1] the test system is human PBMCs activated with aCD3/aCD28. The experiment in a line: cytokine analysis in co-culture supernatant after 24 hours (Luminex). In kind it is cell-based. The note with it: media 3. How it is done:
100 μl PBMCs were added per well. […] See also FIG. 23. Supernatant (24 hours incubation) was analysed for cytokines using the 12-[…]-12 Luminex kit. All reagents, standard and samples were prepared at room temperature and according to manufacturer's instruction. Briefly, 50 μl of standard or sample was added to wells. Microparticles were added to samples and standard and samples were incubated for 2 hours at room temperature on a horizontal orbital shaker (800 rpm). Plate was washed 3× in washing buffer using a magnetic plate. Biotin-antibody was added and incubated dark for 1 hour at room temperature on a horizontal orbital shaker (800 rpm). Plate was washed 3× in washing buffer using a magnetic plate. Streptavidin-PE was added to each well and incubated dark at room temperature on a horizontal orbital shaker (800 rpm) for 30 minutes. Plate was washed 3× in washing buffer using a magnetic plate. Microparticles were resuspended in 100 μl washing buffer, incubated for 2 minutes on a horizontal orbital shaker (800 rpm). Samples were analysed on a Bio-Rad Luminex analyzer.

Data set [2] deals with granulocytes and macrophages among human PBMCs activated with aCD3/aCD28. The experiment in a line: PBMC:MSC co-culture, macrophage composition and CFSE proliferation after 72 hours. It is filed as cell-based. How it is done: (§1) Following activation, cells were analysed for effects on cellular composition after 24 hours and for effects on cellular composition and cell proliferation using CFSE after 72 hours. In addition, supernatants collected after 24 hours of activation were analysed for cytokine levels using Luminex.
(§2) Peripheral Blood Mononuclear Cells (PBMCs) were isolated from leucocyte concentrate from three different donors (acquired from Blodcentralen, Lunds Universitetssjukhus, Lund, Sweden) through gradient centrifugation at 400×g for 40 minutes using Ficoll. Red blood cells (RBCs) were lysed using BD Pharmlyse buffer 10× diluted in milliQ water for 3 minutes at room temperature (RT). Cells were washed and the isolated PBMCs were pooled. Cell concentration was determined using a Scepter cell counter (Millipore Merck, MA. USA). Cells were diluted to 1×10^7 cells/ml in PBS. Pooled PBMCs were split into 2 different tubes. Cells in tube 1 was stained with CFSE at 5 μM for 5 minutes (dark, RT). CFSEstained cells were washed with an equal volume of FBS to stop the reaction and washed again with PBS. Cells in tube two was left in PBS.
When plating controls, cells were spun down and diluted in M3 or M4 at 4*10^6 cells/ml, with a total amount of cells at 4*10^5 cells/well. 100 μl PBMCs were added per well. […] Medium was added to unstimulated control wells (700 μl/well). Cells were incubated for 24 or 72 hours at 37° ° C., 5% CO2. See also FIG. 23.
After 72 hours of incubation, CFSE stained cells were stained with CD4, CD8, CD80, CD206 and CD163 in staining buffer. Briefly, cells were transferred to V bottom plates, centrifuged at 360×g for 2 min. Cells were washed in PBS, centrifuged at 360×g for 2 min at 4° C. Supernatant was flicked off and surface markers were added. Cells were incubated at +4° C. for 20 minutes. After incubation, cells were washed 1× in PBS, centrifuged at 360×g for 2 min at 4° ° C. Cells were resuspended in PBS and acquired using the Attune Nxt flow cytometer. Compensation was performed using beads • AbC Total Compensation capture beads and negative beads for surface markers. For CFSE compensation, newly CFSE stained cells were used. Since compensation was done using both beads and cells, FSC and SSC were changed and adjusted to beads or cells. Lasers were not changed after compensation. 2.3.4 Cytokine Analysis after 24 Hours of Activation (Luminex)
Graphs were performed using Prism 8 for Mac OS X (GraphPad Software, San Diego, CA, USA). Results are presented as mean values±SEM, if not otherwise stated. Dot plots were acquired from analysis using FlowJo v10.6.1 for Mac (BD, New Jersey, USA).

The subject of data set [3] is T cells among human PBMCs activated with aCD3/aCD28. The experiment in a line: PBMC:MSC co-culture, T cell activation status after 24 hours (FACS). The method, then: as §1
(§3) Peripheral Blood Mononuclear Cells (PBMCs) were isolated from leucocyte concentrate from three different donors (acquired from Blodcentralen, Lunds Universitetssjukhus, Lund, Sweden) through gradient centrifugation at 400×g for 40 minutes using Ficoll. Red blood cells (RBCs) were lysed using BD Pharmlyse buffer 10× diluted in milliQ water for 3 minutes at room temperature (RT). Cells were washed and the isolated PBMCs were pooled. Cell concentration was determined using a Scepter cell counter (Millipore Merck, MA. USA). Cells were diluted to 1×10^7 cells/ml in PBS. Pooled PBMCs were split into 2 different tubes. Cells in tube 1 was stained with CFSE at 5 μM for 5 minutes (dark, RT). CFSEstained cells were washed with an equal volume of FBS to stop the reaction and washed again with PBS. Cells in tube two was left in PBS. […]
(§4) Following 24 hours of incubation, cells in FACS/Luminex plates were stained with antibodies detecting CD73, CD4, CD8, CD80, CD206, CD163 and PD-1 in staining buffer (PBS supplemented with 1% BSA). […] 150 μl was analysed from each sample.

Data set [4] has the same test system. The experiment in a line: PBMC:MSC co-culture, T cell composition and CFSE proliferation after 72 hours. How it is done:
as §1, §2
When plating controls, cells were spun down and diluted in M3 or M4 at 4*10^6 cells/ml, with a total amount of cells at 4*10^5 cells/well. 100 μl PBMCs were added per well. […] Medium was added to unstimulated control wells (700 μl/well). […]

Data set [5] concerns granulocytes and macrophages among human PBMCs activated with aCD3/aCD28. The experiment in a line: PBMC:MSC co-culture, macrophage activation status after 24 hours (FACS). To be noted: Prednisolone 125 nM. In kind it is cell-based. How it is done:
as §1, §3, §4

With `C[C@]12C=CC(=O)C=C1CC[C@@H]1[C@@H]2[C@@H](O)C[C@@]2(C)[C@H]1CC[C@]2(O)C(=O)CO` [Prednisolone], in data set [1], the “HGF level in supernatant” value is given as “inhibits”, the “IL-6 level in supernatant” value is recorded as “inhibits”, the “IL-12/IL-23 p40 level in supernatant” value was “inhibits” and the “TNF-a level in supernatant” value is reported as “inhibits”. Besides, the “the other analysed cytokines, levels in supernatant” value in data set [1] was “No inhibitory effect”. In data set [2], the M1 expression levels result is “no effect”, the “M1 proliferation (CFSE)” value is “No effect”, the M2 expression levels result is recorded as “no effect” and the “M2 proliferation (CFSE)” value is on record as “No effect”. Moreover, the “composition of T helper cells (% CD4+ lymphocytes or MFI of CD4+ lymphocytes)” value in data set [3] (24 hours of incubation, vs control) is on record as “higher levels”. In data set [3] (24 hours, CsA 10 μg/ml, Prednisolone 125 nM), the “inhibition of T cell activation” value was “only slightly inhibits”. Moreover, the “effect on cytotoxic T cells (%)” value in data set [4] is “no effect”. Also, the “effect on T helper cells (%)” value in data set [4] (72 hours of incubation) was “no effect”. Besides, the macrophage cell composition result in data set [5] is “did not have an effect”.

The values are drawn from US20240164369A1, “MESENCHYMAL STEM CELLS FOR USE IN INCREASING EX-VIVO ORGAN LIFE” (Amniotics AB, priority 2021, published 2024).
